# Residues, ends and D or L forms follow the SMILES beside them. No end group written: not given here. *: point of attachment. Cbz = O=C(OCc1ccccc1)*
# B1: pTat-GK: Tat fusion protein containing residues 534-724 of PSD-95, guanylate-kinase homology domain; control (protein)
# chain: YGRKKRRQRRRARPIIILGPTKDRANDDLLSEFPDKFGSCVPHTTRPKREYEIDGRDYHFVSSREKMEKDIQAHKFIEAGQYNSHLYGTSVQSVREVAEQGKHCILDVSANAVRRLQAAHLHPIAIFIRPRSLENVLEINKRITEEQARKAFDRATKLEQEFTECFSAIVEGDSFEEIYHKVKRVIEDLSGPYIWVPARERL
# modifications: left off: small tags and cut ends
# notes: Tat fusion protein containing residues 534-724 of PSD-95, guanylate-kinase homology domain; control
# Columns and labels:
# [1] = test system: cortical neuronal cultures; assay: Sublethal stretch injury with or without NMDA, cell death in cortical cultures; type: cell-based
# Procedure: […]. In brief, cerebral cortices from 10 to 12 embryos were incubated for 10 min in 0.05% trypsin-EDTA, dissociated by trituration, and plated on flexible membranes coated with poly-L-ornithine in 6 well plates (Flexcell International Corporation, Hillsborough, N.C.) at a density of 3.25×10^6 cells per well. Plating medium consisted of DMEM supplemented with 10% heat-inactivated horse serum (Gibco) and (in mM) 2 glutamine, 25 glucose, and 26 bicarbonate. The cultures were maintained at 37° C. in a humidified 5% CO2 atmosphere. After 3 days in vitro, growth of non-neuronal cells was halted by a 48 h exposure to 10 μM FDU-solution (5 μM uridine, 5 μM (+)-5-fluor-2′-deoxyuridine). This produces cultures in which >85% of the cells are neurons, based on immunohistochemical staining for glial fibrillary associated protein (exclusive to astrocytes), and for the NMDAR1 subunit (not shown). The cultures were used for experiments after 12-14 days in vitro.
# The cultures, grown on silastic membranes as above, were placed in the Flexercell® FX-3000™ Strain Unit (Flexcell Int., Inc.), a computer-driven instrument that uses a vacuum pulse to deform the culture substrate. In all experiments, the cortical cultures were stretched to 130% of their original length for 1 s, inducing a sublethal injury as recently characterized by us (Arundine et al., 2003). The stretched neurons maintained cell membrane integrity, viability, and electrophysiological function.
# Cell death was determined by serial quantitative measurements of propidium iodide (PI) fluorescence using a multiwell plate fluorescence scanner (Cytofluor II, PerSeptive Biosytems, Framingham, Mass., USA) as described previously (Sattler et al., 1997; Sattler et al., 1998). In brief, the culture medium in each tissue culture well was replaced with control solution containing 50 μg/ml PI, and a baseline fluorescence reading was taken. Sequential readings were then taken at appropriate intervals over the 20 h observation period. The fraction of dead cells in each culture at a given time was calculated as: Fraction dead=(Ft−Fo)/FNMDA Where Ft=PI fluorescence at time t, F0=initial PI fluorescence at time zero and FNMDA=background subtracted PI fluorescence of identical cultures from the same dissection and plating, 20-24 h after a 60 min exposure to 1 mM NMDA at 37° C. Based on manual observations at the time of validation of this technique, this NMDA exposure routinely produced near complete neuronal death in each culture but had no effect on surrounding glia (also see (Bruno et al., 1994; David et al., 1996; Sattler et al., 1997)). Adding Triton X-100 (0.1%) to cultures treated in this manner produced an additional 10-15% increase in PI fluorescence due to permeabilization of non-neuronal cell membranes, consistent with a 10-15% glial component in the cultures.
# All experiments were performed at 37° C. Unless otherwise indicated, all solutions contained nimodipine (2 μM) and CNQX (10 μM) to restrict the actions of applied NMDA to NMDARs by preventing the secondary activation of other pathways (Sattler et al., 1998). In general, the cultures were washed ×2 with control solution and immediately stretched to 130% of their original length for 1 s. After the stretch, they were washed ×1 with control solution alone or challenged with an additional treatment (e.g., NMDA) and placed at 37° C. for 1 h. They were then washed ×1 with control solution and then with control solution containing 50 μg/ml PI to obtain a baseline reading. In pilot studies, baseline readings obtained at this stage were similar to those obtained by staining the cells with PI prior to stretch. As the stretch causes splashing of the bath solution, staining with PI after stretch reduced biohazard potential and artifacts associated with PI outside the culture well. Unstretched controls were manipulated identically to stretched cultures.
# [2] = Physiological variables in pre-treatment MCAO study; type: in vivo, Sprague-Dawley rats
# Procedure: Next, I examined whether pretreatment with Tat-peptides would reduce stroke damage. Experiments were carried out in adult male Sprague-Dawley rats subjected to transient middle cerebral artery occlusion (MCAO) for 90 minutes by the intraluminal suture method (36,37). Animals were fasted overnight and injected with atropine sulfate (0.5 mg/kg IP). After 10 minutes anesthesia was induced with 3.5% halothane in a mixture of nitrous oxide and oxygen (Vol. 2:1) and maintained with 0.8% halothane. Rats were orally intubated, mechanically ventilated, and paralyzed with pancuronium bromide (0.6 mg/kg IV). Body temperature was maintained at 36.5-37.5° C. with a heating lamp. Polyethylene catheters in the femoral artery and vein were used to continuously record blood pressure and to sample blood for gas and pH measurements. […] This produces an extensive infarction encompassing the cerebral cortex and basal ganglia. […] Physiological parameters (body temperature, blood pressure, blood gases) were monitored and maintained throughout the experiment (Table 1). All experimental manipulations and analyses of data were performed by individuals blinded to the treatment groups. The extent of cerebral infarction was measured 24 h after MCAO onset (FIG. 7C inset). The postural reflex test (38), and the forelimb placing test (39) were used to grade neurological function on a scale of 0 to 12 (normal=0; worst=12) during MCAO (at 50 minutes) and 24 h thereafter.
# [3] = test system: transient unilateral middle cerebral artery occlusion; conditions: MCAO 90 min
# [4] = Physiological variables in post-treatment MCAO study; type: in vivo, Sprague-Dawley rats
# Procedure: Next, I examined whether treatment with Tat-NR2B9c could attenuate ischemic neuronal damage in-vivo when given after stroke onset. […] Infarction volume and neurological outcome measurements were performed at times identical to the pre-treatment study. Body temperature, blood pressure and blood gases were monitored throughout the 24 h experiment and maintained equivalent between groups (Table 2).
# [5] = test system: cortical neuronal cultures; assay: DNA fragmentation assays (TUNEL, DNA gel electrophoresis); type: cell-based, mouse; conditions: 20 h post-insult; 200 μM MnTBAP or 100 μM L-NAME
# From the text: DNA fragmentation was examined using the terminal deoxynucleotidyl transferase-mediated end nick labeling (TUNEL) method (Gavrieli et al., 1992; Didenko and Hornsby, 1996; Didenko et al., 1998) and by DNA agarose gel electrophoresis (Hill et al., 2000).
# TUNEL Assay: Nuclear DNA strand breaks were detected by enzymatically labeling free 3′-OH termini with modified nucleotides provided in the Apoptag kit (Intergen) using the manufacturer's instructions. Visualization of TUNEL-stained nuclei was achieved using an anti-digoxigenin antibody conjugated to a fluorescein or peroxidase reporter molecule (ApopTag Peroxidase Kits S7110 and S7100, respectively, Intergen). In fluorescence experiments, nuclei were counterstained using 5 ng/ml Hoechst 33258 (1:5000, Transduction Labs), and visualized using 465-495 nm excitation and 515-555 nm emission for fluorescein and 340 nm excitation and 510-40 nm emission for Hoechst. The number of TUNEL positive cells was expressed as a fraction of the total cell number in the field. In each culture, 4-8 random fields were quantified. Approximately 100-200 cells were counted per culture, and at least 3 experiments were performed for each set of counts.
# DNA Gel Electrophoresis: DNA laddering was evaluated as described elsewhere (Hill et al., 2000). In brief, all tissue was collected from each culture well and pelleted by centrifugation (1000 rpm; 1 min). The cells were digested for 2 h at 56° C. in buffer containing (in mM) 10 Tris pH 8.0, 2 EDTA pH8, 400 NaCl, 0.5% SDS, 1 mg/ml proteinase K. Digest solution was subjected to phenol/chloroform extraction and total DNA was precipitated from the aqueous layer with an equal volume of 100% ethanol. The DNA pellet was dried, dissolved in 50 μl ddH20 and kept overnight at 4° C. 10 μg DNA was prepared on a 2% agarose gel. Gels were stained with ethidium bromide and photographed.
# [6] = test system: cultured cortical neurons; assay: NMDA excitotoxicity in cultured cortical neurons (propidium iodide fluorescence); type: cell-based, mouse
molecule,measurement,setting,value
"CC(C)[C@H](NC(=O)OCc1ccccc1)C(=O)N[C@H](C=O)Cc1ccccc1 [Calpain inhibitor III, z-val-phe-CHO] (Cbz-Val-Phe-aldehyde)",heightened vulnerability of stretched neurons to NMDA,[1]; 10 μM,not reduced
same,toxic effects in control or stretched cultures,[1]; 10 μM,no toxic effects
same,protection of cells challenged with 30 μM or 1 mM NMDA,"[1]; 10 μM, whether or not stretched",slightly protected
"YGRKKRRQRRRKLSSIEADA [Tat-NR2B-AA, reference compound]",Body Temperature,[2]; After MCAo (15 min),36.8 ± 0.08 °C
same,Body Temperature,[2]; After MCAo (24 hr),37.0 ± 0.25 °C
same,Body weight,[2]; After MCAo (24 hr),244 ± 6 g
same,Body Temperature,[2]; Before MCAo(15 min),36.6 ± 0.15 °C
same,MABP,[2]; Before MCAo(15 min),115 ± 5 mmHg
same,Blood gases PCO2,[2]; Before MCAo(30 min),39.1 ± 1.4 mmHg
same,Blood gases PH,[2]; Before MCAo(30 min),7.44 ± 0.02
same,Blood gases PO2,[2]; Before MCAo(30 min),110 ± 7 mmHg
same,Body Temperature,[2]; Before MCAo(30 min),36.5 ± 0.12 °C
same,MABP,[2]; Before MCAo(30 min),110 ± 4 mmHg
same,Body Temperature,[2]; Before MCAo(45 min),36.7 ± 0.17 °C
same,MABP,[2]; Before MCAo(45 min),115 ± 5 mmHg
same,Body weight,[2]; Before anesthesia,273 ± 7 g
same,Blood gases PCO2,[2]; During MCAo (5 min),39.6 ± 0.5 mmHg
same,Blood gases PH,[2]; During MCAo (5 min),7.44 ± 0.02
same,Blood gases PO2,[2]; During MCAo (5 min),109 ± 4 mmHg
same,Body Temperature,[2]; During MCAo (5 min),36.6 ± 0.17 °C
same,MABP,[2]; During MCAo (5 min),135 ± 7 mmHg
same,Body Temperature,[2]; During MCAo (15 min),36.7 ± 0.15 °C
same,MABP,[2]; During MCAo (15 min),111 ± 6 mmHg
same,toxic effects in control or stretched cultures,[1]; 50 nM,no toxic effects
same,Mean (SE) core temperature during surgery,[3],37.2 (∀0.2)
same,Mean (SE) core temperature subsequent to surgery,[3],37.3 (∀0.1)
same,Mean (SE) systolic blood pressure during surgery,[3],109 (∀5.9)
same,Mean (SE) systolic blood pressure prior to surgery,[3],113 (∀8.8)
same,Mean (SE) systolic blood pressure subsequent to surgery,[3],115 (∀5.9)
same,Mean (SE) core temperature prior to surgery,[3]; drug i.v. 3 hours after onset of ischemia,36.9 (∀0.1)
same,Body Temperature,[4]; After MCAo (15 min),36.9 ± 0.23 °C
same,MABP,[4]; After MCAo (15 min),116 ± 4 mmHg
same,Body Temperature,[4]; After MCAo (24 hr),36.7 ± 0.27 °C
same,Body weight,[4]; After MCAo (24 hr),276 ± 6 g
same,Blood gases PCO2,[4]; Before MCAo(15 min),37.9 ± 1.1 mmHg
same,Blood gases PH,[4]; Before MCAo(15 min),7.45 ± 0.01
same,Blood gases PO2,[4]; Before MCAo(15 min),113 ± 4 mmHg
same,Body Temperature,[4]; Before MCAo(15 min),36.7 ± 0.07 °C
same,MABP,[4]; Before MCAo(15 min),103 ± 6 mmHg
same,Body weight,[4]; Before anesthesia,301 ± 5 g
same,Blood gases PCO2,[4]; During MCAo (15 min),48.0 ± 1.2 mmHg
same,Blood gases PH,[4]; During MCAo (15 min),7.46 ± 0.01
same,Blood gases PO2,[4]; During MCAo (15 min),108 ± 2 mmHg
same,Body Temperature,[4]; During MCAo (15 min),36.7 ± 0.11 °C
same,MABP,[4]; During MCAo (15 min),121 ± 5 mmHg
same,Body Temperature,[4]; During MCAo (60 min),37.0 ± 0.31 °C
same,MABP,[4]; During MCAo (60 min),149 ± 4 mmHg
same,Body Temperature,[4]; During MCAo (65 min),37.0 ± 0.29 °C
same,MABP,[4]; During MCAo (65 min),136 ± 5 mmHg
"COC(=O)[C@@H](N)CCCNC(=N)N[N+](=O)[O-] [L-NAME, N^G-nitro-L-arginine methyl ester]",DNA laddering after stretch followed by NMDA,[5],virtually abolished
same,TUNEL staining after stretch followed by NMDA,[5],virtually abolished
same,enhanced vulnerability of stretched neurons to NMDA,"[1]; 100 μM, 30 min preincubation",completely eliminated the enhanced vulnerability
same,toxicity of 30 μM NMDA in unstretched neurons,"[1]; 100 μM, 30 min preincubation",reduced the toxicity
same,protection against NMDA toxicity,[6]; cultured cortical neurons,protected
B1,"enhanced cell mortality in stretched neurons by NMDA challenge, post-treatment",[1]; 50 nM applied after terminating the 1 h NMDA challenge,ineffective
same,"NMDA-evoked cell death, pre-treatment","[6]; 50 nM for 1 h, then NMDA 0-100 μM 1 h, 20 h observation",had no effect

# From patent US8071548B2, “Method of reducing injury to mammalian cells” (Nono, Inc., priority 2002, dated 2011)
